The values below come from patent US3985878A, “Anti-inflammatory and antirheumatic compounds and preparation” (priority 1974, dated 1976).

The nature of one data set: Solubility. The data set is classed as physicochemical.
Data set [1] can be described thus: Osteolathyrism in the rabbit (aminoacetonitrile). In kind it is in vivo. Here is the method: B. Tests in vivo: Osteolathyrism in the rabbit.
Osteolathrism consists of inducing into young rabbits a dystrophy of the bone joint system, administering every day aminoacetonitrile by i.p. means, in the quantity of 100 mg/kg of body weight. With this treatment, in about 30 days, the following changes are shown in the rabbit:
Loss of weight (related to the checks physiologically treated), ptosis of the auricular pavilion, loss of fur, deformation of the front and rear limbs, deterioration of the general condition.
All this takes place because the aminoacetonitrile is a collagen tissue poison which changes the biochemical composition of the joint cartilages and the bones.
An evaluation of the therapeutic activity can be made either by biochemical evaluation, i.e. by measuring the quantity of aminosugars in these tissues, or by considering only the general symptoms, which are proportional to the diminution of the aminosugars.
In Table 5 this latter evaluation is reported, in which every symptom was evaluated by allotting it a number from 0 to 4, 4 indicating the maximum amount of damage and 0 indicating no damage.
On Table 5 there are given the results of treatment evaluated on the 25th day, comparing the groups treated only with a physiological solution, only with aminoacetonitrile, with aminoacetonitrile and CR 604, with aminoacetonitrile and Indometacin in the prescribed doses.
Each group consisted of 8 animals.

For the next data set, the system named is urinary calcium. In kind it is in vivo, human. Here is the method:
(§1) Thus for example comparing CR 604 administered in capsules of 75 mg (6 per day), with Indometacin in capsules of 25 mg (6 per day), i.e. in approximately equimolecular doses on a group of 60 subjects treated (30 with CR 604 and 30 with Indometacin, one notes that (see Table 7):
c. […] Excretion of calcium is related to the destruction of the fibrils of the proteic bone matrix which thus also loses the calcium deposited upon it.
The administration of known anti-inflammatories brings about the lysis of these fibrils with loss of calcium.

The subject of another data set is fibroblast culture. Briefly: Production of mucopolysaccharides from fibroblast culture in vitro. The data set is classed as cell-based. To be noted: Fibroblast, 240 h, read-out: Mucopolysaccharide products at the tenth day of incubation; for activity at 10 µg/mL: 10 μg/ml of culture liquid. Here is the method:
a. Tests in vitro: These tests consist of the cultivation in vitro, i.e., outside the organism, of tissue of the same embriological origin in relation to the osteoarticular. Upon the growth of this tissue there is then measured the activities of the various drugs. The units of measurement of these activities is the production of glucosaminoglicanes (mucopolysaccharides measured by the turbidimetric method).
The compounds which form the subject of this invention were evaluated according to this test and compared with known anti-inflammatories.

Data set [2] can be described thus: Analgesic activity, phenylquinone test. The data set is classed as in vivo, rat. To be noted: read-out: ED50 per os, analgesic activity (phenylquinone test). From the text: 2. Analgesic activity: The analgesic activity of an anti-inflammatory can be examined traditionally by the phenylquinone method based on the fact that intra-peritoneal administration to a rat of an irritant substance such as phenylquinone induces vocal reactions ("squirring") in the animal.
From the number of these reactions one judges the pain sensitivity.

Data set [3] in a line: Anti-inflammatory activity, paw test (Domenjoz test). The data set is classed as in vivo, rat. To be noted: read-out: ED50 per os, acute anti-inflammatory activity (Domenjoz test). Here is the method: 1a. Anti-inflammatory activity: this activity was measured by the paw test according to Doemnjoz, characterised in its carrying out by the following method:
To young rats of medium weight of 200 g there is administered by hypodermic injection into the right paw an aqueous suspension of carragheen at 1%, 1 hour after the oral administration of the drugs under investigation.
After two hours from the administration of the carragheen, the pawas are disjointed, weighed, and comparison is made between the injected paw, meanwhile swollen, and the paw not interfered with.
This evaluation is expressed both in mg/kg of animal weight and in micromoles/Kg of weight of the animal.

Data set [4] is classed as in vivo, human. To be noted: for gastric disturbances (subjects treated): Indometacin capsules of 25 mg. Here is the method: Thus for example comparing CR 604 administered in capsules of 75 mg (6 per day), with Indometacin in capsules of 25 mg (6 per day), i.e. in approximately equimolecular doses on a group of 60 subjects treated (30 with CR 604 and 30 with Indometacin, one notes that (see Table 7): […]

A further data set has as its system uropepsinogene. In kind it is in vivo, human. Here is the method: as §1
Gastric secretion of pepsin is increased by agents which irritate and damage the gastric mucosa.

Data set [5] is described as follows: Irritant and ulceroid (gastrolesive) activity on the gastric mucosa. To be noted: in vivo, rat. Here is the method:
4. Irritant and ulceroid activity on the gastric mucosa
The experimental evaluation of this activity was made on rats, by the method here reported:
The compound is administered orally to rats which have fasted for 12 hours, the animals being killed 4 hours after the administration.
Regarded as positive, i.e. with stomach damage, are those animals which have at least one haemorrhage point on the stomach wall.
By ED50 there is meant that dose of the drug which can […] in 50% of the animals treated, the formation of these haemorrhages.
In Table 6 there are compared CR 604 and Indometacin, since the latter is, amongst them all, the nearest to the anti-inflammatory activity values of CR 604.

The nature of data set [6]: Pellets-induced granuloma test (cotton pellets). The data set is classed as in vivo, rat. To be noted: Rattus norvegicus, po, read-out: ED50 per os, acute anti-inflammatory activity (granuloma test). Here is the method:
1b. Pellets-induced granuloma test:
Another important test for the evaluation of an anti-inflammatory is that of cotton pellets. This consists of planting a sterile cotton pellet under the rat's back skin.
This pellet is left in situ for a week while the animals are treated daily with various doses of the drug being examined. Evaluation is effected by weighing the pellets taken at the given time and dried, comparing the weight of those of the treated animals with the checks.

Where [7] appears, read: score 0 (no damage) to 4 (maximum damage), 5 mg/kg/day i.p. + aminoacetonitrile 100 mg/kg/day, 25 days.
Setting [8] is: after one week, CR 604 75 mg or Indometacin 25 mg capsules, 6 per day.
Where [9] appears, read: after three weeks, CR 604 75 mg or Indometacin 25 mg capsules, 6 per day.
Where [10] appears, read: oral, fasted 12 hours, killed 4 hours after administration, read-out: ED50 gastrolesive.
Setting [11] is: rat, oral 1 hour before carragheen 1%, paws weighed after two hours.

Several values for one entry are separate records, joined by “and”; a condition that tells them apart may be missing. Equal entries are not always repeated. Structures can show the parent of a compound that is named as a salt. Where two headings read alike, the source gives them in different places.

On to `CCCN(CCC)C(=O)C(CCC(=O)OCCCN1CCN(CCOC(=O)Cc2c(C)n(C(=O)c3ccc(Cl)cc3)c3ccc(OC)cc23)CC1)NC(=O)c1ccccc1` (racemic) [CR 604 dioxalate, N'-2-[1-(p-chlorobenzoyl)-5-methoxy-2-methyl-3-indoleacetoxy]ethyl-N-3-(N-benzoyl-N', N'-di-n-propyl-DL-isoglutaminoyl)-oxypropyl-piperazine], for which, in “Solubility”, the solubility in acetone entry is listed as “slightly soluble”, the solubility in ethanol result is “slightly soluble” and the solubility in methanol result is “slightly soluble”. In “Solubility” (water), the “solubility in water, in words” value is given as “Insoluble”.

Consider `COc1ccc2c(c1)c(CC(=O)O)c(C)n2C(=O)c1ccc(Cl)cc1` [Indometacin], for which the “effect on aminoacetonitrile symptoms, in words” value in [1] (rabbit) is on record as “cannot prevent the occurrence of these conditions”. Further, the “Deformed gait of back legs” value in [1] (setting [7]) is 1.6. Further, the “Deformed gait of front legs” value in [1] (setting [7]) is on record as 3.2. Besides, the “General Condition of Animal” value in data set [1] (setting [7]) came out at 3.8. Moreover, the Loss of fur in [1] (setting [7]) came to 3. The Loss of weight in data set [1] (setting [7]) is listed as 3.5. The “Ptosis of auricular pavilion” value in data set [1] (setting [7]) was 1.4. Moreover, the Urinary calcium in the data set on urinary calcium (setting [8]) is 137 mg/1000 cc of urine; with urinary calcium (setting [9]) it was 148 mg/1000 cc of urine; with urinary calcium (before treatment), 126 mg/1000 cc of urine. For the same molecule, in the data set with urinary calcium (human), the “excretion of urinary calcium, in words” value is “tendency to an increase”. Further, in the data set with fibroblast culture, the activity at 2 µg/mL is 78%. Also, the ED50 in data set [2] (Rattus norvegicus, po) was 5.6 µmol/kg and 2 mg/kg; in data set [3] (Rattus norvegicus, po), 17.3 µmol/kg and 6.2 mg/kg; in [6], 23.5 µmol/kg and 8.41 mg/kg. Moreover, the “gastric disturbances (subjects treated)” value in data set [4] (after 1 week of treatment, 6 per day) is on record as 46.6%; in [4] (after 3 weeks of treatment, 6 per day), 53.3%. Besides, the Epigastric pain is on record as 53.3 % of patients in pain in [4] (after 3 weeks, CR 604 75 mg or Indometacin 25 mg capsules, 6 per day); 46.6 % of patients in pain in [4] (setting [8]); 0 % of patients in pain in data set [4] (before treatment). Further, the Uropepsinogene in the data set on uropepsinogene (setting [8]) was 208.1 equivalent mg of tyrosine per; in the data set on uropepsinogene (setting [9]) it was 345.7 equivalent mg of tyrosine per; in the data set with uropepsinogene (before treatment) it was 164.7 equivalent mg of tyrosine per. Moreover, in the data set on uropepsinogene (human), the “uropepsinogene in urine, in words” value is “increases”. Also, the TD50 at 4 h in [5] (setting [10]) was 33.5 µmol/kg and 12 mg/kg. Also, in data set [5] (po), the “gastrolesive dose, in words” value is reported as “very low”.

Regarding `CCCN(CCC)C(=O)C(CCC(=O)OCCN1CCN(CCOC(=O)Cc2c(C)n(C(=O)c3ccc(Cl)cc3)c3ccc(OC)cc23)CC1)NC(=O)c1ccccc1` (racemic) [CR 626 (di-maleate), N'-2-[1-(p-chlorobenzoyl)-5-methoxy-2-methyl-3-indoleacetoxy]-ethyl-N-2-(N-benzoyl-N',N'-di-n-propyl-D,L-isoglutaminoyl)-oxyethyl-piperazine], the ED50 in data set [3] (setting [11]) is 15 µmol/kg and 16 mg/kg. In addition, the TD50 at 4 h in [5] (setting [10]) stood at 342 µmol/kg. In data set [5] (po), this molecule displayed a TD50 at 4 h of 363 mg/kg. Moreover, in “Solubility”, the solubility in acetone entry is given as “slightly soluble”, the solubility in ethanol result is “slightly soluble” and the solubility in methanol result is given as “more soluble”. Moreover, the “solubility in water, in words” value in “Solubility” (water) was “Insoluble”.

Consider `CCCN(CCC)C(=O)C(CCC(=O)OCCCN1CCN(CCOC(=O)Cc2c(C)n(C(=O)c3ccc(Cl)cc3)c3ccc(OC)cc23)CC1)NC(=O)c1ccccc1` (racemic) [CR 604 di-hydrochloride, N'-2-[1-(p-chlorobenzoyl)-5-methoxy-2-methyl-3-indoleacetoxy]ethyl-N-3-(N-benzoyl-N', N'-di-n-propyl-DL-isoglutaminoyl)-oxypropyl-piperazine], for which, in “Solubility”, the solubility in acetone entry is listed as “Fairly soluble”, the solubility in ethanol entry is listed as “Soluble” and the solubility in methanol result is “Soluble”. Also, the “solubility in water, in words” value in the data set “Solubility” (water) is “Hardly soluble”. For the same molecule, the solubility in “Solubility” (water, 25°) is about 5000 µg/mL.

With `CC(C)Cc1ccc(C(C)C(=O)O)cc1` (centres unmarked) [Ibuprofen], in data set [3] (setting [11]), the ED50 was 436 µmol/kg and 90 mg/kg.

Turning to `Cc1cccc(Nc2ccccc2C(=O)O)c1C` [Mephenamic ac.], the activity at 10 µg/mL in the data set with fibroblast culture is 58%. Further, the median effective dose (ED50) in data set [3] (setting [11]) is 439 µmol/kg and 106 mg/kg.

For `CCCN(CCC)C(=O)C(CCC(=O)OCCCN1CCN(CCCOC(=O)Cc2c(C)n(C(=O)c3ccc(Cl)cc3)c3ccc(OC)cc23)CC1)NC(=O)c1ccccc1` (racemic) [CR 613 (di-maleate), N'-3-[1(p-chlorobenzoyl)-5-methoxy-2-methyl-3-indoleacetoxy]-propyl-N-3-(N-benzoyl-N',N'-di-n-propyl-DL-isoglutaminoyl)-oxypropyl-piperazine], in data set [3] (setting [11]), the ED50 was 13.6 µmol/kg and 14.9 mg/kg. Further, in data set [5] (setting [10]), the TD50 at 4 h was 277 µmol/kg. Besides, the TD50 at 4 h in [5] (po) is 303 mg/kg. For the same molecule, in the data set “Solubility”, the solubility in acetone entry is recorded as “slightly soluble”, the solubility in ethanol entry is given as “slightly soluble” and the solubility in methanol result was “more soluble”. Besides, the “solubility in water, in words” value in the data set “Solubility” (water) is listed as “Insoluble”.

Turning to `CC(=O)Oc1ccccc1C(=O)O` [Acetylsalicylic ac.], the ED50 in [3] (Rattus norvegicus, po) is 1250 µmol/kg and 226 mg/kg.

Turning to `CCCCC1C(=O)N(c2ccccc2)N(c2ccccc2)C1=O` [Phenylbutazone], in the data set on fibroblast culture, the activity at 10 µg/mL was determined as 58%. Also, the 50% effective dose (ED50) in [2] (rat, oral) was 324 µmol/kg and 100 mg/kg; in data set [3] (setting [11]) it was 464 µmol/kg and 143 mg/kg.
